Several values for one entry are separate records, joined by “and”; a condition that tells them apart may be missing. Equal values may be shown once.
What was measured:
[1] = Whole-body dynamic PET/MR biodistribution and blood clearance; assay type: in vivo, C57BL/6 mice
Procedure: (§1) Mice (n = 30) were anesthetized with 2% isoflurane (in oxygen) and injected with [^18F]FBAT (11.1 MBq; 0.3 mCi) via the tail vein. Dynamic PET images were obtained in fully three-dimensional list mode for 30 min using a small animal SuperArgus 2r PET system (SEDECAL, Madrid, Spain) or 7T PETMR Inline (Bruker, Rheinstetten, Germany; energy window, 350-650 keV; timing window, 6 ns). Images were acquired every 10 s for 12 images, 60 s for three images, 300 s for three images, or 600 s for […]. The anatomical structure of the brain was imaged using T2 MRI. The MRI sequences included 0.5 mm thick T2 Turbo RARE high-resolution images (TR = 3000 ms, TE, 46 ms, matrix, 512 × 256, average, 40, slice number, 30, field of view, 20 × 10 mm).
(§2) Images were reconstructed by the Fourier rebinning algorithm and two-dimensional filtered back projection using a ramp filter with a cutoff at Nyquist. The regional radioactivity concentration (kBq/cc) of [^18F]FBAT was estimated from the mean pixel values within the region of interest (ROI) corresponding to MR images of various organs and regions of the brain. ROI for carotid artery, heart muscle, lung, liver, spleen, and kidney were defined and time activity curves (TACs) generated. TACs for whole brain, cortex, cerebellum, and brainstem were also determined as described above.
(§3) The concentration of radioactivity (kBq/cc, μCi/cc) was converted to standardized uptake value (SUV), and the mean and standard deviation (SD) of radiotracer accumulation values were calculated for different organs and regions of the brain. Data were analyzed with PMOD 4.0 software (PMOD Technologies Ltd., Zurich, Switzerland).

iNOS [2] = biological target: T1, iNOS (Mus musculus, UniProt P29477); assay: In vivo brain PET/MR imaging of LPS-induced iNOS expression (SUV, SUR, AUC) incl. aminoguanidine blocking; set-up: species or system C57BL/6 mice
T1 construct: tracer to detect iNOS expression in mice injected with lipopolysaccharide (LPS) to induce brain inflammation; from tissue; host or cells: brain of living C57BL/6 mice (LPS-induced); fixed brain sections for IHC
Procedure: For the imaging experiments, twelve C57BL/6 mice were injected i.p. with 0.9% NaCl, eighteen mice were injected i.p. with 0.1 mL of LPS in saline (5 mg/kg), and six mice were injected i.p. with aminoguanidine (Sigma-Aldrich) 30 min prior to 5 mg/kg LPS. In vivo imaging was performed 3 h or 24 h after injection of LPS; then, the mice were immediately humanely euthanized and the brains were removed for immunostaining.
as §1
After determining the optimal imaging time point for [^18F]FBAT, we performed a blocking study using a selective iNOS inhibitor to assess the specificity of the tracer for iNOS. Separate 7T PET/MR studies with [^18F]FBAT were performed for mice (n = 6) administered a bolus of aminoguanidine (50 mg/kg i.p.) 30 min prior to administration of [^18F]FBAT. The time course of [^18F]FBAT radioactivity in the brain after administration of the iNOS inhibitor was assessed and compared to that of the mice in the LPS 3 h group.
as §2, §3

iNOS [3] = biological target: T1, iNOS; assay: Logan graphical analysis of dynamic PET (Vt); assay type: in vivo, C57BL/6 mice
Procedure: The dynamic PET imaging data were analyzed using Logan's model-independent graphical analysis to assess whether [^18F]FBAT PET/MR could be used to detect differences in expression of iNOS in brain regions (Cbra(t)). Cardiac blood TACs (Cref(t)) were used as the reference tissue. The slope of the linear portion of the Logan plot represents the total distribution (Vt). Then, the slope of the linear portion of the plot can be calculated using (1) ∫0tCreferencetdt/CreferenceT=DVR∫0tCbrain regiontdt/CreferenceT+C.

iNOS [4] = biological target: T1, iNOS; assay: Pharmacokinetic two-compartment modeling of dynamic PET; assay type: in vivo, C57BL/6 mice; settings: mouse whole brain
From the text: A time activity curve (TAC) for a carotid artery region of interest was used to determine the dynamic PET image-derived [^18F]FBAT input function in uncorrected blood plasma. The corresponding TACs for [^18F]FBAT were derived by applying images from mice administered [^18F]FBAT to the image-derived plasma TAC. Model parameters were estimated for influx constant k1 (mL/cm^3/min^−1), efflux (k2) (min^−1) rate of radioligand diffusion between plasma and brain compartment. Exchange between compartments k3 (min^−1) and k4 (min^−1) was also estimated. The net influx constant, Ki (min^−1), parameter that describes the rate of binding to the iNOS was calculated as (2) KiFBAT=k1FBAT×k3FBAT/k2FBAT+k3FBAT.
Compartmental modeling, pharmacokinetic analyses, and generation of pixel-by-pixel parametric images were accomplished using PMOD 4.0 software (PMOD Technologies Ltd., Zurich, Switzerland).

[5] = LPS 5 mg/kg, 3 h, 30 min post i.v. tracer
[6] = LPS 5 mg/kg, 24 h, 30 min post i.v. tracer
[7] = LPS 3 h + aminoguanidine 50 mg/kg pretreatment
[8] = control mice, 30 min post i.v. tracer

NC1=NC2(CCN(C(=O)c3ccc([18F])cc3)CC2)Nc2c(F)ccc(F)c21 [[^18F]FBAT, (4′-amino-5′,8′-difluoro-1′H-spiro[piperidine-4,2′-quinazolin]-1-yl)(4-[^18F]fluorophenyl)methanone]
level of [^18F]FBAT in blood (carotid ROI) ([1]; 30 min post i.v. injection, brain imaging study): 0.30 ± 0.06 SUV
radioactivity remaining in the blood pool ([1]; 30 min postinjection, whole-body biodistribution study): 0.298 ± 0.019 SUV
time of peak radioactivity in heart muscle ([1]; after injection): ≤ 1 min
blood clearance half-life, first phase (biexponential) ([1]; carotid, i.v.): 1.05 ± 0.58 min
blood clearance half-life, second phase (biexponential) ([1]; carotid, i.v.): 24.9 ± 7.46 min
time of peak accumulation in the lungs ([1]; postinjection): 1 to 2 min
accumulation of radioactivity in skeletal structures ([1]; up to 30 min postinjection): No accumulation
SUV, brainstem (iNOS [2]; [5]): 0.98 ± 0.09 SUV and 0.976 ± 0.244^∗ SUV
SUV, cerebellum (iNOS [2]; [5]): 0.60 ± 0.03 SUV and 0.600 ± 0.066^∗ SUV
SUV, cortex (iNOS [2]; [5]): 0.90 ± 0.07 SUV and 0.904 ± 0.251^∗ SUV
SUV, whole brain (iNOS [2]; [5]): 1.43 ± 0.11 SUV and 1.428 ± 0.410^∗∗∗ SUV
SUV, brainstem (iNOS [2]; [6]): 0.67 ± 0.07 SUV and 0.671 ± 0.148 SUV
SUV, cerebellum (iNOS [2]; [6]): 0.54 ± 0.02 SUV and 0.542 ± 0.052 SUV
SUV, cortex (iNOS [2]; [6]): 0.62 ± 0.02 SUV and 0.620 ± 0.041 SUV
SUV, whole brain (iNOS [2]; [6]): 0.90 ± 0.13 SUV and 0.900 ± 0.270 SUV
SUV, brainstem (iNOS [2]; [7]): 0.35 ± 0.10 SUV and 0.350 ± 0.055 SUV
SUV, cerebellum (iNOS [2]; [7]): 0.31 ± 0.09 SUV and 0.310 ± 0.037 SUV
SUV, cortex (iNOS [2]; [7]): 0.32 ± 0.09 SUV and 0.320 ± 0.063 SUV
SUV, whole brain (iNOS [2]; [7]): 0.31 ± 0.08 SUV and 0.312 ± 0.055 SUV
SUR (SUVLPS to SUVcon), brainstem (iNOS [2]; LPS 24 h): 1.273 ± 0.163
SUR (SUVLPS to SUVcon), cerebellum (iNOS [2]; LPS 24 h): 1.233 ± 0.112
SUR (SUVLPS to SUVcon), cortex (iNOS [2]; LPS 24 h): 0.970 ± 0.303
SUR (SUVLPS to SUVcon), whole brain (iNOS [2]; LPS 24 h): 1.351 ± 0.451
SUR (SUV ratio to control), brainstem (iNOS [2]; control mice): 1.000
SUR (SUV ratio to control), cerebellum (iNOS [2]; control mice): 1.000
SUR (SUV ratio to control), cortex (iNOS [2]; control mice): 1.000
SUR (SUV ratio to control), whole brain (iNOS [2]; control mice): 1.000
SUV, brainstem (iNOS [2]; [8]): 0.540 ± 0.153 SUV
SUV, cerebellum (iNOS [2]; [8]): 0.448 ± 0.115 SUV
SUV, cortex (iNOS [2]; [8]): 0.604 ± 0.150 SUV
SUV, whole brain (iNOS [2]; [8]): 0.709 ± 0.200 SUV
AUC0-30min, 3 h LPS group vs control group (iNOS [2]; whole brain, average): 1.9 ± 0.21 fold
volume distribution Vt, brainstem (iNOS [3]; LPS 3 h): 0.435 ± 0.040^∗ mL/cm^3
volume distribution Vt, cerebellum (iNOS [3]; LPS 3 h): 0.385 ± 0.016^∗∗ mL/cm^3
volume distribution Vt, cortex (iNOS [3]; LPS 3 h): 0.391 ± 0.020^∗ mL/cm^3
volume distribution Vt, whole brain (iNOS [3]; LPS 3 h): 0.404 ± 0.003 mL/cm^3
volume distribution Vt, brainstem (iNOS [3]; LPS 3 h + AMG): 0.223 ± 0.036 mL/cm^3
volume distribution Vt, cerebellum (iNOS [3]; LPS 3 h + AMG): 0.250 ± 0.055 mL/cm^3
volume distribution Vt, cortex (iNOS [3]; LPS 3 h + AMG): 0.222 ± 0.024 mL/cm^3
volume distribution Vt, whole brain (iNOS [3]; LPS 3 h + AMG): 0.203 ± 0.032 mL/cm^3
volume distribution Vt, brainstem (iNOS [3]; LPS 24 h): 0.315 ± 0.065 mL/cm^3
volume distribution Vt, cerebellum (iNOS [3]; LPS 24 h): 0.288 ± 0.090 mL/cm^3
volume distribution Vt, cortex (iNOS [3]; LPS 24 h): 0.264 ± 0.036^∗ mL/cm^3
volume distribution Vt, whole brain (iNOS [3]; LPS 24 h): 0.274 ± 0.068 mL/cm^3
average volume distribution Vt in brain regions (iNOS [3]; LPS group (implied), blood as reference tissue): 0.40 ± 0.02 mL/cm^3
Vt in the brain regions (iNOS [3]; control animals): 0.29 ± 0.05 mL/cm^3
volume distribution Vt, brainstem (iNOS [3]; control mice): 0.295 ± 0.026 mL/cm^3
volume distribution Vt, cerebellum (iNOS [3]; control mice): 0.227 ± 0.001 mL/cm^3
volume distribution Vt, cortex (iNOS [3]; control mice): 0.278 ± 0.006 mL/cm^3
volume distribution Vt, whole brain (iNOS [3]; control mice): 0.346 ± 0.012 mL/cm^3
Vt, 3 h LPS group vs control group (iNOS [3]; whole brain, average): 1.4 ± 0.22 fold
k1 (influx rate constant) (iNOS [4]; LPS 5 mg/kg): 0.633 ± 0.002 min⁻¹
k2 (efflux rate constant) (iNOS [4]; LPS 5 mg/kg): 0.608 ± 0.054 min⁻¹
k3 (iNOS [4]; LPS 5 mg/kg): 0.006 ± 0.003^∗ min^−1
k1 (influx rate constant) (iNOS [4]; control): 0.957 ± 0.250 min⁻¹
k2 (efflux rate constant) (iNOS [4]; control): 0.777 ± 0.101 min⁻¹
k3 (iNOS [4]; control): 2.86E − 05 ± 4.48E − 05 min^−1
